Data taken from patent US20160075653A1, “NEMATICIDAL N-(PHENYLCYCLOALKYL)CARBOXAMIDES AND N-(PHENYLCYCLOALKYL)THIOCARBOXAMIDES” (BAYER CROPSCIENCE AKTIENGESELLSCHAFT, priority 2013, published 2016).

Assay: Measurement of log P values by HPLC on reversed phase columns (methods [a] pH 2.3, [b] pH 2.7, [c] pH 7.8)
Format: physicochemical
Conditions: HPLC on reversed phase column
Outline: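 Determined per EEC Directive 79/831 Annex V.A8 by reversed-phase HPLC, 10-95% acetonitrile gradient: [a] pH 2.3, 0.1% phosphoric acid; [b] LC-MS, pH 2.7, 0.1% formic acid; [c] LC-MS, pH 7.8, 0.001 molar ammonium hydrogen carbonate. Calibrated with C3-C16 alkan-2-ones by retention-time interpolation.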

Compound	logP (method [b], pH 2.7)	logP (method [c], pH 7.8)
O=C(N[C@@H]1C[C@@H]1c1ccc(Cl)cc1Cl)c1cncnc1C(F)(F)F (relative stereo) [Example 610]	2.89^[b]	2.87^[c];
Cn1ncc(C(=O)N[C@@H]2C[C@@H]2c2ccc(Cl)cc2Cl)c1C(F)F (relative stereo) [Example 612]	2.99^[b]	2.94^[c];
O=C(N[C@@H]1C[C@@H]1c1ccc(Cl)cc1Cl)c1ccc(Cl)cc1Cl (relative stereo) [Example 613]	3.82^[b]	3.76^[c];
CC1=C(C(=O)N[C@@H]2C[C@@H]2c2ccc(Cl)cc2Cl)S(=O)(=O)CCO1 (relative stereo) [Example 614]	2.40^[b]	2.33^[c];
CC1=C(C(=O)N[C@@H]2C[C@@H]2c2ccc(Cl)cc2Cl)SCCO1 (relative stereo) [Example 615]	3.06^[b]	3.01^[c];
O=C(N[C@@H]1CC[C@H]1c1cccc(F)c1C(F)(F)F)c1ncccc1Cl (relative stereo) [Example 616]	3.30^[b]	
O=C(N[C@@H]1CC[C@H]1c1ccccc1C(F)(F)F)c1cccnc1 (relative stereo) [Example 618]	2.26^[b]	
O=C(N[C@@H]1CC[C@H]1c1ccccc1C(F)(F)F)c1nccnc1Cl (relative stereo) [Example 622]	2.98^[b]	
O=C(N[C@@H]1CC[C@H]1c1ccccc1C(F)(F)F)c1ncccc1Br (relative stereo) [Example 624]	3.34^[b]	3.27^[c];
Cc1nc(C(F)(F)F)c(C(=O)N[C@@H]2CC[C@H]2c2cccc(F)c2C(F)(F)F)s1 (relative stereo) [Example 625]	3.56^[b]	
Cc1nc(C(F)(F)F)c(C(=O)N[C@@H]2CC[C@@H]2c2cccc(F)c2C(F)(F)F)s1 (relative stereo) [Example 626]	3.28^[b]	
O=C(N[C@@H]1CC[C@H]1c1cccc(F)c1C(F)(F)F)c1sccc1I (relative stereo) [Example 627]	4.02^[b]	
O=C(N[C@@H]1CC[C@@H]1c1cccc(F)c1C(F)(F)F)c1sccc1I (relative stereo) [Example 628]	3.65^[b]	
O=C(N[C@@H]1CC[C@H]1c1cccc(F)c1C(F)(F)F)c1ccccc1[N+](=O)[O-] (relative stereo) [Example 629]	3.18^[b]	
O=C(N[C@@H]1CC[C@H]1c1cccc(F)c1C(F)(F)F)c1ccccc1Br (relative stereo) [Example 632]	3.57^[b]	
Cc1nc(C(F)(F)F)c(C(=O)N[C@@H]2CC[C@H]2c2ccccc2C(F)(F)F)s1 (relative stereo) [Example 633]	3.49^[b]	
Cc1nc(C(F)(F)F)c(C(=O)N[C@@H]2CC[C@@H]2c2ccccc2C(F)(F)F)s1 (relative stereo) [Example 634]	3.34^[b]	
O=C(N[C@@H]1CC[C@H]1c1ccccc1C(F)(F)F)c1sccc1I (relative stereo) [Example 635]	3.99^[b]	
O=C(N[C@@H]1CC[C@@H]1c1ccccc1C(F)(F)F)c1sccc1I (relative stereo) [Example 636]	3.83^[b]	
O=C(N[C@@H]1CC[C@H]1c1ccccc1C(F)(F)F)c1ccccc1[N+](=O)[O-] (relative stereo) [Example 637]	3.13^[b]	

Compound	logP (method [b], pH 2.7)	logP (method [c], pH 7.8)
O=C(N[C@@H]1CC[C@H]1c1cccc(F)c1C(F)(F)F)c1c(F)cccc1F (relative stereo) [Example 640]	3.36^[b]	
Cn1cc(C(=O)N[C@@H]2CC[C@@H]2c2cccc(F)c2C(F)(F)F)c(C(F)F)n1 (relative stereo) [Example 643]	2.75^[b]	
Cn1cc(C(=O)N[C@@H]2CC[C@H]2c2cccc(F)c2C(F)(F)F)c(C(F)F)n1 (relative stereo) [Example 644]	2.99^[b]	
O=C(N[C@@H]1CC[C@H]1c1cccc(F)c1C(F)(F)F)c1nccnc1Cl (relative stereo) [Example 646]	3.10^[b]	
O=C(N[C@@H]1CC[C@H]1c1cccc(F)c1C(F)(F)F)c1cccnc1Cl (relative stereo) [Example 648]	2.86^[b]	
N#Cc1ccccc1C(=O)N[C@@H]1C[C@@H]1c1ccc(Cl)cc1Cl (relative stereo) [Example 650]	2.72^[b]	2.70^[c];
O=C(N[C@@H]1CC[C@H]1c1ccc(Br)cc1C(F)(F)F)c1ccccc1C(F)(F)F (relative stereo) [Example 655]	4.26^[b]	4.19^[c];
O=C(N[C@@H]1CC[C@@H]1c1ccc(Br)cc1C(F)(F)F)c1ccccc1C(F)(F)F (relative stereo) [Example 656]	4.02^[b]	3.94^[c];
O=C(N[C@@H]1CC[C@@H]1c1ccc(Br)cc1C(F)(F)F)c1cccnc1C(F)(F)F (relative stereo) [Example 657]	3.52^[b]	3.42^[c];
O=C(N[C@@H]1CC[C@H]1c1ccc(Br)cc1C(F)(F)F)c1cccnc1C(F)(F)F (relative stereo) [Example 658]	3.76^[b]	3.66^[c];
O=C(N[C@@H]1CC[C@@H]1c1ccc(Br)cc1C(F)(F)F)c1nccnc1C(F)(F)F (relative stereo) [Example 659]	3.72^[b]	3.62^[c];
O=C(N[C@@H]1CC[C@H]1c1ccc(Br)cc1C(F)(F)F)c1nccnc1C(F)(F)F (relative stereo) [Example 660]	3.97^[b]	3.87^[c];
O=C(N[C@@H]1CC[C@@H]1c1ccc(Cl)cc1Cl)c1ccccc1[N+](=O)[O-] (relative stereo) [Example 661]	3.19^[b]	
O=C(N[C@@H]1CC[C@H]1c1ccc(Cl)cc1Cl)c1cccnc1 (relative stereo) [Example 662]	2.58^[b]	
O=C(N[C@@H]1CC[C@@H]1c1ccc(Cl)cc1Cl)c1cccnc1Cl (relative stereo) [Example 663]	2.84^[b]	
O=C(N[C@@H]1CC[C@H]1c1cccc(F)c1C(F)(F)F)c1cccnc1 (relative stereo) [Example 664]	2.38^[b]	
O=C(N[C@@H]1CC[C@H]1c1ccc(Cl)cc1C(F)(F)F)c1ccc(Cl)cc1Cl (relative stereo) [Example 665]	4.55^[b]	
O=C(N[C@@H]1CC[C@@H]1c1ccc(Cl)cc1C(F)(F)F)c1ccccc1Cl (relative stereo) [Example 666]	3.75^[b]	
O=C(N[C@@H]1CC[C@@H]1c1ccc(Cl)cc1C(F)(F)F)c1ncc(C(F)(F)F)cc1Cl (relative stereo) [Example 667]	4.33^[b]	
Cc1nc(C(F)(F)F)c(C(=O)N[C@@H]2CC[C@H]2c2ccc(Cl)cc2Cl)s1 (relative stereo) [Example 668]	3.91^[b]	

Compound	logP (method [b], pH 2.7)	logP (method [c], pH 7.8)
Cc1nc(C(F)(F)F)c(C(=O)N[C@@H]2CC[C@@H]2c2ccc(Cl)cc2Cl)s1 (relative stereo) [Example 669]	3.58^[b]	
O=C(N[C@@H]1CC[C@H]1c1ccc(Cl)cc1Cl)c1sccc1I (relative stereo) [Example 670]	4.51^[b]	
O=C(N[C@@H]1CC[C@@H]1c1ccc(Cl)cc1Cl)c1sccc1I (relative stereo) [Example 671]	4.20^[b]	
O=C(N[C@@H]1CC[C@H]1c1ccc(Cl)cc1Cl)c1ccccc1[N+](=O)[O-] (relative stereo) [Example 672]	3.47^[b]	
O=C(N[C@@H]1CC[C@@H]1c1ccc(Cl)cc1Cl)c1cccnc1 (relative stereo) [Example 673]	2.23^[b]	
O=C(N[C@@H]1CC[C@H]1c1ccc(Cl)cc1Cl)c1cccnc1Cl (relative stereo) [Example 674]	3.16^[b]	
O=C(N[C@@H]1CC[C@H]1c1ccc(Cl)cc1Cl)c1nccnc1Cl (relative stereo) [Example 675]	3.43^[b]	
O=C(N[C@@H]1CC[C@@H]1c1ccc(Cl)cc1Cl)c1nccnc1Cl (relative stereo) [Example 676]	3.05^[b]	
O=C(N[C@@H]1CC[C@H]1c1ccc(Cl)cc1C(F)(F)F)c1ccccc1I (relative stereo) [Example 677]	4.20^[b]	
O=C(N[C@@H]1CC[C@@H]1c1ccc(Cl)cc1C(F)(F)F)c1ccccc1I (relative stereo) [Example 678]	3.90^[b]	
O=C(N[C@@H]1CC[C@H]1c1ccc(Cl)cc1C(F)(F)F)c1ccccc1 (relative stereo) [Example 679]	3.87^[b]	
O=C(N[C@@H]1CC[C@@H]1c1ccc(Cl)cc1C(F)(F)F)c1ccccc1 (relative stereo) [Example 680]	3.51^[b]	
O=C(N[C@@H]1CC[C@H]1c1ccc(Cl)cc1C(F)(F)F)c1ccccc1Cl (relative stereo) [Example 697]	4.01^[b]	
O=C(N[C@@H]1CC[C@H]1c1ccc(Cl)cc1C(F)(F)F)c1ncccc1Cl (relative stereo) [Example 698]	3.84^[b]	
O=C(N[C@@H]1CC[C@@H]1c1ccc(Cl)cc1C(F)(F)F)c1ncccc1Cl (relative stereo) [Example 699]	3.49^[b]	
O=C(N[C@@H]1CC[C@H]1c1ccc(Cl)cc1C(F)(F)F)c1ncc(C(F)(F)F)cc1Cl (relative stereo) [Example 700]	4.65^[b]	
O=C(N[C@@H]1CC[C@H]1c1ccc(Cl)cc1C(F)(F)F)c1c(F)cccc1F (relative stereo) [Example 701]	3.75^[b]	
O=C(N[C@@H]1CC[C@@H]1c1ccc(Cl)cc1C(F)(F)F)c1c(F)cccc1F (relative stereo) [Example 702]	3.52^[b]	
O=C(N[C@@H]1CC[C@H]1c1ccc(Cl)cc1C(F)(F)F)c1ccccc1C(F)(F)F (relative stereo) [Example 703]	4.10^[b]	
O=C(N[C@@H]1CC[C@@H]1c1ccc(Cl)cc1C(F)(F)F)c1ccccc1C(F)(F)F (relative stereo) [Example 704]	3.84^[b]	
